SMILES strings stand for the structures. Read-outs that look alike come from different tables or passages of the source.

Experiment [1] has as its system HCV genotype 1a (H77 strain) replicon in HUH-7 cells. Nature of the experiment: HCV replicon luciferase reporter assay, genotype 1a. Particulars: Hepatitis C virus, Huh-7, 72 h, 3 days incubation. Format: cell-based. An outline of the steps: (§1)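 Replicon inhibition for both genotypes was measured as Renilla luciferase signal (EnduRen, 7.5 μM final, 2 h) after 3-day, 37° C exposure of replicon-bearing HUH-7 cells in 4% FCS DMEM, 0.5% DMSO. The 1b construct carries S1179I; the 1a H77 construct carries P1496L and S2204I. Twenty-point, 3-fold dilutions were fitted four-parametrically for EC50, and CC50 was taken from multiplexed Cell Titer-Blue.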

Experiment [2] deals with HCV genotype 1b (Con1) replicon in HUH-7 cells. The experiment is described as follows: HCV replicon luciferase reporter assay, genotype 1b. The experiment is classed as cell-based. The settings on record: Hepatitis C virus, Huh-7, 72 h, 3 days incubation. An outline of the steps: as §1
On the technique in general: Replicon systems follow genome replication, usually without infectious particles.

The mark [3] stands for this setting: HCV genotype 1a replicon luciferase assay, range class, read-out: LE_1a (EC50, range).
[4] abbreviates: HCV genotype 1b replicon luciferase assay, range class, read-out: LE_1b (EC50, range).
Where [5] appears, read: GETYPE1A, HCV genotype 1a replicon luciferase assay, range class, read-out: LE_1a (EC50, range).
Where [6] appears, read: GETYPE1B, HCV genotype 1b replicon luciferase assay, range class, read-out: LE_1b (EC50, range).
Where [7] appears, read: GETYPE1A, HCV genotype 1a replicon luciferase, read-out: LE_1a (EC50, range).
The mark [8] stands for this setting: GETYPE1B, HCV genotype 1b replicon luciferase, read-out: LE_1b (EC50, range).
Setting [9] is: GETYPE1A, HCV genotype 1a replicon luciferase, read-out: LE_1a (EC50).
Setting [10] is: GETYPE1B, HCV genotype 1b replicon luciferase, read-out: LE_1b (EC50).

Turning to `COc1ccc2c(O[C@@H]3C[C@H]4C(=O)N[C@]5(C(=O)NS(=O)(=O)C6(CF)CC6)C[C@H]5/C=C\CC[C@@H](C)C[C@@H](C)[C@H](NC(=O)OC(C)(C)C(F)(F)F)C(=O)N4C3)ncc(C(F)(F)F)c2c1` [Compound 1175, 1,1,1-trifluoro-2-methylpropan-2-yl((2R,6S,7R,9R,13aS,14aR,16aS,Z)-14a-(((1-(fluoromethyl)cyclopropyl)sulfonyl)carbamoyl)-2-((6-methoxy-4-(trifluoromethyl)isoquinolin-1-yl)oxy)-7,9-dimethyl-5,16-dioxo-1,2,3,5,6,7,8,9,10,11,13a,14,14a,15,16,16a-hexadecahydrocyclopropa[e]pyrrolo[1,2-a][1,4]diazacyclopentadecin-6-yl)carbamate], the EC50 in experiment [1] (setting [3]) and in experiment [2] (setting [4]) was below 5.46 nM throughout.
`COc1ccc2c(O[C@@H]3C[C@H]4C(=O)N[C@]5(C(=O)NS(=O)(=O)C6(CF)CC6)C[C@H]5/C=C\CC[C@H](C)C[C@@H](C)[C@H](NC(=O)OC5(C(F)(F)F)CCCOC5)C(=O)N4C3)ncc(C(F)(F)F)c2c1` (stereo partly drawn) [Compound 1176, 3-(trifluoromethyl)tetrahydro-2H-pyran-3-yl((2R,6S,7R,9S,13aS,14aR,16aS,Z)-14a-(((1-(fluoromethyl)cyclopropyl)sulfonyl)carbamoyl)-2-((6-methoxy-4-(trifluoromethyl)isoquinolin-1-yl)oxy)-7,9-dimethyl-5,16-dioxo-1,2,3,5,6,7,8,9,10,11,13a,14,14a,15,16,16a-hexadecahydrocyclopropa[e]pyrrolo[1,2-a][1,4]diazacyclopentadecin-6-yl)carbamate]: the 50% effective concentration (EC50) in experiment [1] (setting [3]) and in experiment [2] (setting [4]) was 4.82 to 103 nM in each case.
With `COc1ccc2c(O[C@@H]3C[C@H]4C(=O)N[C@]5(C(=O)NS(=O)(=O)C6(CF)CC6)C[C@H]5/C=C\CC[C@@H](C)C[C@@H](C)[C@H](NC(=O)OC5(C(F)(F)F)CCCOC5)C(=O)N4C3)ncc(C(F)(F)F)c2c1` (stereo partly drawn) [Compound 1177, 3-(trifluoromethyl)tetrahydro-2H-pyran-3-yl((2R,6S,7R,9R,13aS,14aR,16aS,Z)-14a-(((1-(fluoromethyl)cyclopropyl)sulfonyl)carbamoyl)-2-((6-methoxy-4-(trifluoromethyl)isoquinolin-1-yl)oxy)-7,9-dimethyl-5,16-dioxo-1,2,3,5,6,7,8,9,10,11,13a,14,14a,15,16,16a-hexadecahydrocyclopropa[e]pyrrolo[1,2-a][1,4]diazacyclopentadecin-6-yl)carbamate], the EC50 in experiment [1] (setting [3]) and in experiment [2] (setting [4]) was below 5.46 nM throughout.
Turning to `CC[C@@H]1C[C@@H](C)CC/C=C\[C@@H]2C[C@@]2(C(=O)NS(=O)(=O)C2(C)CC2)NC(=O)[C@@H]2C[C@@H](Oc3nc(OC)cc4cc(OC)ccc34)CN2C(=O)[C@H]1NC(=O)OC1(C(F)(F)F)CCCOC1` (stereo partly drawn) [Compound 1178, 3-(trifluoromethyl)tetrahydro-2H-pyran-3-yl((2R,6S,7R,9S,13aS,14aR,16aS,Z)-2-((3,6-dimethoxyisoquinolin-1-yl)oxy)-7-ethyl-9-methyl-14a-(((1-methylcyclopropyl)sulfonyl)carbamoyl)-5,16-dioxo-1,2,3,5,6,7,8,9,10,11,13a,14,14a,15,16,16a-hexadecahydrocyclopropa[e]pyrrolo[1,2-a][1,4]diazacyclopentadecin-6-yl)carbamate], the EC50 in experiment [1] (setting [3]) and in experiment [2] (setting [4]) was below 5.46 nM throughout.
For the molecule `COc1ccc2c(O[C@@H]3C[C@H]4C(=O)N[C@]5(C(=O)NS(=O)(=O)C6(C(F)F)CC6)C[C@H]5/C=C\CC[C@@H](C)C[C@@H](C)[C@H](NC(=O)OC(C)(C)C)C(=O)N4C3)nc(OC)cc2c1` [Compound 1180, tert-butyl ((2R,6S,7R,9R,13aS,14aR,16aS,Z)-14a-(((1-(difluoromethyl)cyclopropyl)sulfonyl)carbamoyl)-2-((3,6-dimethoxyisoquinolin-1-yl)oxy)-7,9-dimethyl-5,16-dioxo-1,2,3,5,6,7,8,9,10,11,13a,14,14a,15,16,16a-hexadecahydrocyclopropa[e]pyrrolo[1,2-a][1,4]diazacyclopentadecin-6-yl)carbamate], the concentration giving a half-maximal response (EC50) in experiment [1] (setting [3]) and in experiment [2] (setting [4]) was below 5.46 nM each time.
On to `COc1ccc2c(O[C@@H]3C[C@H]4C(=O)N[C@]5(C(=O)NS(=O)(=O)C6(C(F)F)CC6)C[C@H]5/C=C\CC[C@@H](C)C[C@@H](C)[C@H](NC(=O)OC(C)(C)C(F)(F)F)C(=O)N4C3)nc(OC)cc2c1` [Compound 1181], for which the concentration giving a half-maximal response (EC50) in experiment [1] (setting [5]) and in experiment [2] (setting [6]) was below 5.46 nM in each case.
On to `COc1ccc2c(O[C@@H]3C[C@H]4C(=O)N[C@]5(C(=O)NS(=O)(=O)C6(C(F)F)CC6)C[C@H]5/C=C\CC[C@@H](C)C[C@@H](C)[C@H](NC(=O)OC(C)(C)C(C)(F)F)C(=O)N4C3)nc(OC)cc2c1` [Compound 1182], for which the EC50 in experiment [1] (setting [5]) and in experiment [2] (setting [6]) was below 5.46 nM each time.
Take `COc1ccc2c(O[C@@H]3C[C@H]4C(=O)N[C@]5(C(=O)NS(=O)(=O)C6(CF)CC6)C[C@H]5/C=C\CC[C@@H](C)C[C@@H](C)[C@H](NC(=O)O[C@@]5(C(F)(F)F)CCCOC5)C(=O)N4C3)nc(-c3ccc(OC(C)C)cc3)cc2c1` [Compound 1183]: the half-maximal effective concentration (EC50) in experiment [1] (setting [7]) and in experiment [2] (setting [8]) was 1.01 to 5 nM in each case.
Turning to `COc1ccc2c(O[C@@H]3C[C@H]4C(=O)N[C@]5(C(=O)NS(=O)(=O)C6(CF)CC6)C[C@H]5/C=C\CC[C@@H](C)C[C@@H](C)[C@H](NC(=O)O[C@]5(C(F)(F)F)CCCOC5)C(=O)N4C3)nc(-c3ccc(OC(C)C)cc3)cc2c1` [Compound 1184], the EC50 in experiment [1] (setting [7]) and in experiment [2] (setting [8]) was 1.01 to 5 nM in each case.
Consider `COc1cc2ccnc(O[C@@H]3C[C@H]4C(=O)N[C@]5(C(=O)NS(=O)(=O)C6(CF)CC6)C[C@H]5/C=C\CC[C@@H](C)C[C@@H](C)[C@H](NC(=O)OC(C)(C)C(F)(F)F)C(=O)N4C3)c2cc1F` [Compound 1185], for which the EC50 – broadly, the concentration that produces a half-maximal response – in experiment [1] (setting [9]) was 2.91 nM; in experiment [1] (setting [7]) it was 1.01 to 5 nM; in experiment [2] (setting [10]), 0.83 nM; in experiment [2] (setting [8]) it was 0.51 to 1 nM.
`COc1cc2ccnc(O[C@@H]3C[C@H]4C(=O)N[C@]5(C(=O)NS(=O)(=O)C6(CF)CC6)C[C@H]5/C=C\CC[C@H](C)C[C@@H](C)[C@H](NC(=O)OC(C)(C)C(F)(F)F)C(=O)N4C3)c2cc1F` [Compound 1186]: the EC50 fell in the range of 5.01 to 35 nM in experiment [1] (setting [7]) and 1.01 to 5 nM in experiment [2] (setting [8]).
For `CC[C@@H]1C[C@H](C)CC/C=C\[C@@H]2C[C@@]2(C(=O)NS(=O)(=O)C2(C)CC2)NC(=O)[C@@H]2C[C@@H](Oc3nc(OC)cc4cc(OC)c(F)cc34)CN2C(=O)[C@H]1NC(=O)OC(C)(C)C(F)(F)F` [Compound 1187] the same measures were 5.01 to 35 nM and 1.01 to 5 nM.
For `CC[C@@H]1C[C@H](C)CC/C=C\[C@@H]2C[C@@]2(C(=O)NS(=O)(=O)C2(C)CC2)NC(=O)[C@@H]2C[C@@H](Oc3nc(OC)cc4cc(OC)c(F)cc34)CN2C(=O)[C@H]1NC(=O)OC(C)(C)C(C)(F)F` [Compound 1188] the same measures were 1.01 to 5 nM and 0.51 to 1 nM.
For `CC[C@@H]1C[C@H](C)CC/C=C\[C@@H]2C[C@@]2(C(=O)NS(=O)(=O)C2(C)CC2)NC(=O)[C@@H]2C[C@@H](Oc3nc(OC)cc4cc(OC)c(F)cc34)CN2C(=O)[C@H]1NC(=O)OC1(C(F)(F)F)CCCOC1` (stereo partly drawn) [Compound 1189] the same measures were 1.01 to 5 nM and 0.51 to 1 nM.
Take `COc1cc2ccnc(O[C@@H]3C[C@H]4C(=O)N[C@]5(C(=O)NS(=O)(=O)C6(CF)CC6)C[C@H]5/C=C\CC[C@@H](C)C[C@@H](C)[C@H](NC(=O)OC5(C(F)(F)F)CCCCO5)C(=O)N4C3)c2cc1F` (stereo partly drawn) [Compound 1190]: the EC50 in experiment [1] (setting [9]) is 1.66 nM; in experiment [1] (setting [7]), 1.01 to 5 nM; in experiment [2] (setting [10]) it was 1.12 nM; in experiment [2] (setting [8]) it was 1.01 to 5 nM.
`COc1cc2ccnc(O[C@@H]3C[C@H]4C(=O)N[C@]5(C(=O)NS(=O)(=O)C6(CF)CC6)C[C@H]5/C=C\CC[C@H](C)C[C@@H](C)[C@H](NC(=O)OC5(C(F)(F)F)CCCCO5)C(=O)N4C3)c2cc1F` (stereo partly drawn) [Compound 1191]: the concentration for a half-maximal effect (EC50) in experiment [1] (setting [7]) and in experiment [2] (setting [8]) was 5.01 to 35 nM in each case.
Turning to `CC[C@@H]1C[C@H](C)CC/C=C\[C@@H]2C[C@@]2(C(=O)NS(=O)(=O)C2(C)CC2)NC(=O)[C@@H]2C[C@@H](Oc3nccc4cc(OC)c(F)cc34)CN2C(=O)[C@H]1NC(=O)OC1(C(F)(F)F)CCCCO1` (stereo partly drawn) [Compound 1192], the values for the EC50 in experiment [1] (setting [7]) and in experiment [2] (setting [8]) were 1.01 to 5 nM and 0.51 to 1 nM, respectively.
For `CC[C@@H]1C[C@H](C)CC/C=C\[C@@H]2C[C@@]2(C(=O)NS(=O)(=O)C2(CF)CC2)NC(=O)[C@@H]2C[C@@H](Oc3nc(OC)cc4cc(OC)ccc34)CN2C(=O)[C@H]1NC(=O)OC(C)(C)C(F)(F)F` [Compound 1193] the same measures were 1.01 to 5 nM and 0.51 to 1 nM.
For `CC[C@@H]1C[C@@H](C)CC/C=C\[C@@H]2C[C@@]2(C(=O)NS(=O)(=O)C2(CF)CC2)NC(=O)[C@@H]2C[C@@H](Oc3nc(OC)cc4cc(OC)ccc34)CN2C(=O)[C@H]1NC(=O)OC(C)(C)C(F)(F)F` [Compound 1194] the same measures were 5.01 to 35 nM and 1.01 to 5 nM.

Values taken from US9499550B2 (BRISTOL-MYERS SQUIBB COMPANY, priority 2012, dated 2016).
